The melting point is the temperature, or range, at which the solid turns liquid.

The record followed here is patent US20060211697A1, “2-(2 Or 4-substituted aryloxy)-phenol derivatives as antibacterial agents” (priority 2004, published 2006).

In brackets after ≈: the same amount, converted by molar mass. Some results are limits rather than exact numbers.

One data set deals with E. coli 43888. Description: MIC, broth dilution method, E. coli. Format: cell-based. The conditions noted are these: Escherichia coli, 43888; Gram-negative bacteria; in vitro, broth dilution; read-out: MIC E. coli 43888. Here is the method:
(§1) Minimum Inhibition Concentration (MIC), Broth Dilution Method:
(§2) The compounds of the present invention were tested against an assortment of Gram positive and Gram negative organisms using standard microtitration techniques well known to those skilled in the art. Cultures of bacteria are initially brought up from the freezer by streaking a loopful onto agar plates under the appropriate conditions. For instance bacterial stocks are streaked onto chocolate agar and then incubated for 18 hours at 35-37° C. in a 5% CO2 incubator. Five to ten colonies are picked from the chocolate agar plate for subculture to Brain-Heart infusion (BHI) broth, Mueller Hinton broth, or BHI containing 4% serum and incubated under the appropriate conditions. The ability of the test compound to act as an antimicrobial is determined by the ability to inhibit bacterial growth in vitro. The optical density of the culture of organisms in the presence of an active compound is compared to the optical density of the same organism untreated. The activity of the compounds is described as either negative or the lowest concentration inhibiting growth (Minimum Inhibitory Concentration [MIC]).
Background: Broth dilution looks for growth in wells or tubes with falling amounts of substance.

A further data set deals with S. pneumoniae 11733. Description: MIC, broth dilution method, S. pneumoniae. Format: cell-based. The conditions noted are these: Streptococcus pneumoniae, 11733; Gram-positive bacteria; in vitro, broth dilution; read-out: MIC S. pneumoniae 11733. Here is the method: as §1, §2
Another data set has as its system S. aureus 29213. Kind of data set: MIC, broth dilution method, S. aureus. The conditions noted are these: Staphylococcus aureus, 29213; Gram-positive bacteria; in vitro, broth dilution; read-out: MIC S. aureus 29213. It counts as cell-based. Here is the method:
as §1, §2

A further data set relates to H. influenzae 43095. Description: MIC, broth dilution method, H. influenzae. It counts as cell-based. The settings on record: Haemophilus influenzae, 43095; Gram-negative bacteria; in vitro, broth dilution; read-out: MIC H. influenzae 43095. The method, then: as §1, §2

For the compound `Nc1nnc(-c2ccccc2Oc2ccc(F)cc2O)s1` [Example 22, 2-[2-(5-Amino-[1,3,4]thiadiazol-2-yl)-phenoxy]-5-fluoro-phenol], the melting point is 250 to 255 °C (dec.). In addition, in the data set on E. coli 43888, the MIC is greater than 25 µg/mL. For the same compound, the MIC in the data set with S. pneumoniae 11733 was 25 µg/mL (≈ 82.4 µM). Also, in the data set with S. aureus 29213, the MIC is 12.5 µg/mL (≈ 41.2 µM). Besides, the MIC in the data set on H. influenzae 43095 was greater than 25 µg/mL.
As to `Cc1ccc(Oc2ccc(C3NC(C(=O)O)CCS3)cc2C#N)c(O)c1` (stereo not shown) [Example 10, 2-[3-Cyano-4-(2-hydroxy-4-methyl-phenoxy)-phenyl]-[1,3]thiazinane-4-carboxylic acid], the melting point was 147 to 150 °C (dec.). Further, the MIC with E. coli 43888 is 4 µg/mL (≈ 10.8 µM). Besides, the MIC with S. pneumoniae 11733 is 2 µg/mL (≈ 5.4 µM). Also, the MIC in the data set with S. aureus 29213 was determined as 2 µg/mL (≈ 5.4 µM). In the data set with H. influenzae 43095, the MIC worked out at 2 µg/mL (≈ 5.4 µM).
`Cc1ccc(Oc2ccc(-c3nnc(N)s3)cc2)c(O)c1` [Example 23, 2-[4-(5-Amino-[1,3,4]thiadiazol-2-yl)-phenoxy]-5-methyl-phenol]: the melting point is 240 to 243 °C (dec.). For the same compound, the MIC in the data set on E. coli 43888 is 25 µg/mL (≈ 83.5 µM). Besides, the MIC in the data set with S. pneumoniae 11733 was determined as 12.5 µg/mL (≈ 41.8 µM). The MIC with S. aureus 29213 turned out to be 1.6 µg/mL (≈ 5.34 µM). Also, the MIC in the data set on H. influenzae 43095 was greater than 25 µg/mL.
Regarding `Cc1ccc(Oc2ccc(C3NC(C(=O)O)CCS3)cc2)c(O)c1` (stereo not shown) [Example 8, 2-[4-(2-Hydroxy-4-methyl-phenoxy)-phenyl]-[1, 3]thiazinane-4-carboxylic acid], the melting point was 140 to 145 °C (dec.). The MIC in the data set on E. coli 43888 was found to be 4 µg/mL (≈ 11.6 µM). The MIC in the data set on S. pneumoniae 11733 was 4 µg/mL (≈ 11.6 µM). The MIC in the data set with S. aureus 29213 was 0.5 µg/mL (≈ 1.45 µM). Further, the MIC in the data set with H. influenzae 43095 stood at 0.5 µg/mL (≈ 1.45 µM).
In turn, `Cc1ccc(Oc2ccc(-c3cccs3)cc2O)c(O)c1` [Example 3, 2-(2-Hydroxy-4-methyl-phenoxy)-5-(thiophen-2-yl)-phenol] yielded a melting point of 91 to 92 °C. Further, in the data set on E. coli 43888, the MIC was found to be 15.7 µg/mL (≈ 52.6 µM). The MIC in the data set on S. pneumoniae 11733 turned out to be 1 µg/mL (≈ 3.35 µM). Further, the MIC in the data set with S. aureus 29213 is 4 µg/mL (≈ 13.4 µM). Further, in the data set on H. influenzae 43095, the MIC was determined as 4 µg/mL (≈ 13.4 µM).
`Cc1ccc(Oc2ccc(C3NC(C(=O)O)CS3)cc2C#N)c(O)c1` (stereo not shown) [Example 9, 2-[3-Cyano-4-(2-hydroxy-4-methyl-phenoxy)-phenyl]-thiazolidine-4-carboxylic acid] showed a melting point of 150 to 152 °C. For the same compound, the MIC with E. coli 43888 worked out at 4 µg/mL (≈ 11.2 µM). In addition, the MIC with S. pneumoniae 11733 amounted to 4 µg/mL (≈ 11.2 µM). The MIC in the data set on S. aureus 29213 is 2 µg/mL (≈ 5.61 µM). For the same compound, in the data set with H. influenzae 43095, the MIC came to 4 µg/mL (≈ 11.2 µM).
As to `Cc1ccc(Oc2ccc(-c3nnn[nH]3)cc2)c(O)c1` [Example 13, 5-Methyl-2-[4-(1H-tetrazol-5-yl)-phenoxy]-phenol and 5-methyl-2-[4-(2H-tetrazol-5-yl)-phenoxy]-phenol], the melting point is 173 to 175 °C. For the same compound, in the data set on E. coli 43888, the MIC is 62.5 µg/mL (≈ 233 µM). Moreover, the MIC in the data set with S. pneumoniae 11733 is 7.9 µg/mL (≈ 29.4 µM). Also, the MIC in the data set with S. aureus 29213 worked out at 7.9 µg/mL (≈ 29.4 µM). Besides, the MIC in the data set with H. influenzae 43095 came to 2 µg/mL (≈ 7.46 µM).
With `Cc1ccc(Oc2ccccc2-c2nnn[nH]2)c(O)c1` [Example 14, 5-Methyl-2-[2-(1H-tetrazol-5-yl)-phenoxy]-phenol and 5-methyl-2-[2-(2H-tetrazol-5-yl)-phenoxy]-phenol], the melting point fell in the range of 205 to 207 °C. Besides, the MIC with E. coli 43888 was found to be 0.125 µg/mL (≈ 0.466 µM). In addition, the MIC in the data set on S. pneumoniae 11733 is 2 µg/mL (≈ 7.46 µM). In addition, in the data set on S. aureus 29213, the MIC worked out at 0.002 µg/mL (≈ 0.00746 µM). In addition, the MIC in the data set with H. influenzae 43095 came to 0.125 µg/mL (≈ 0.466 µM).
As to `Cc1ccc(Oc2ccc(C3NC(C(=O)O)CS3)cc2)c(O)c1` (stereo not shown) [Example 7, 2-[4-(2-Hydroxy-4-methyl-phenoxy)-phenyl]-thiazolidine-4-carboxylic acid], the melting point was 172 to 174 °C (dec.). Further, in the data set with E. coli 43888, the MIC worked out at 4 µg/mL (≈ 12.1 µM). Also, the MIC with S. pneumoniae 11733 was found to be 1 µg/mL (≈ 3.02 µM). The MIC with S. aureus 29213 was found to be 0.25 µg/mL (≈ 0.754 µM). Further, in the data set on H. influenzae 43095, the MIC was found to be 1 µg/mL (≈ 3.02 µM).
`Oc1ccccc1Oc1ccc(-c2ccsc2)cc1O` [Example 1, 2-(2-Hydroxy-phenoxy)-5-(thiophen-3-yl)-phenol] returned a melting point of 114 to 116 °C. Further, the MIC in the data set with E. coli 43888 amounted to 15.7 µg/mL (≈ 55.2 µM). Further, the MIC in the data set with S. pneumoniae 11733 is 2 µg/mL (≈ 7.03 µM). The MIC in the data set with S. aureus 29213 was 4 µg/mL (≈ 14.1 µM). The MIC in the data set on H. influenzae 43095 is 2 µg/mL (≈ 7.03 µM).
Compound `Cc1ccc(Oc2ccc(C3NCCS3)cc2)c(O)c1` (stereo not shown) [Example 5, 5-Methyl-2-[4-(thiazolidin-2-yl)-phenoxy]-phenol] gave a melting point of 197 to 199 °C. Further, the MIC with E. coli 43888 was determined as 4 µg/mL (≈ 13.9 µM). The MIC in the data set with S. pneumoniae 11733 was 4 µg/mL (≈ 13.9 µM). Besides, the MIC in the data set with S. aureus 29213 worked out at 0.5 µg/mL (≈ 1.74 µM). Further, the MIC with H. influenzae 43095 worked out at 0.125 µg/mL (≈ 0.435 µM).
